Laboratory results published in publication PMC10522709, “Rational design and characterization of cell-selective antimicrobial peptides based on a bioactive peptide from Crocodylus siamensis hemoglobin” (Scientific Reports, 2023).
Ends that are not written are not given here.

Assays:
[1] = tested on: EcoRI-digested Lambda (λ) DNA; test: Gel retardation assay; assay type: binding; settings: 200 ng λ DNA, peptide 4, 6, 8, 16 µg/mL, 60 min, room temperature, 0.8% agarose gel
Experimental: DNA used for this test was Lambda (λ) DNA, which had been digested with EcoRI into fragments sized 21,226, 7421, 5804, 5643, 4878 and 3530 bp (Thermo Fisher Scientific, Waltham, MA, USA). The gel retardation assay was run by mixing 200 ng of λ DNA with different concentrations of IL15.3 at 1 × MIC (4 µg/mL), 2 × MIC (8 µg/mL), 4 × MIC (16 µg/mL) and MBC (6 µg/mL) of E. coli. The mixtures were incubated for 60 min at room temperature and subjected to electrophoresis on a 0.8% agarose gel. Gel was then stained with ViSafe Red gel stain (Vivantis, Selangor Darul Ehsan, Malaysia). Subsequently, DNA bands were photographed using G-box gel documentation (Syngene, USA).

[2] = tested on: S. epidermidis (ATCC12228); test: Time-killing kinetics assay; assay type: cell-based, Staphylococcus epidermidis; settings: 1 × MIC, 37 °C, colony count
Experimental: The time-killing kinetics of peptide was determined as described previously by Yaraksa et al.[16] In short, E. coli (ATCC25922) and S. epidermidis (ATCC12228) cells grown overnight were diluted in the Nutrient broth to a concentration of 1 × 10^6 CFU/mL. The diluted bacterial suspension (50 µL) was incubated with the peptide solution (50 µL, final concentration = 1 × MIC or 2 × MIC) at 37 °C. 10 µL of the mixture was taken at regular time intervals (0, 15, 30, 60, 180, 360, 540 and 720 min for 1 × MIC and 0, 30, 60, 180, 360, 720, 1440, 2160 and 2880 min for 2 × MIC), diluted and cultured on nutrient agar plates for 24 h. Bacterial cells were then counted and a graph of the log CFU/mL against incubation time was plotted to evaluate the rate at which peptides kill bacterial cells.

[3] = tested on: Klebsiella pneumoniae (ATCC 27736); assay type: cell-based; settings: ATCC 27736, 18 h
Experimental: (§1) Broth microdilution assays were performed as reported previously. In short, the bacteria including Escherichia coli (ATCC 25922), Klebsiella pneumoniae (ATCC 27736), Pseudomonas aeruginosa (ATCC 27853), Bacillus subtilis (ATCC 6633), Staphylococcus aureus (ATCC 25923) and Staphylococcus epidermidis (ATCC 12228) were grown in Nutrient broth to mid-log phase at 37 °C. The bacterial suspension (50 μL, concentration of 1 × 10^6 CFU/mL) was loaded into a well with serially diluted peptide (50 µL, final concentrations ranging from 0–200 μg/mL) in a sterile 96-well plate and incubated at 37 °C for 18 h. The optical density (OD) at 600 nm was measured using a microplate reader (ALLSHENG, Zhejiang, China) in order to determine the growth of the bacteria. The inhibition was estimated using the formula; %inhibition=OD600ofcontrol-OD600ofsample/OD600ofcontrol-OD600ofblank×100 where minimal inhibitory concentration (MIC) is defined as the minimum concentration that inhibited 90% of bacterial growth.

[4] = tested on: Staphylococcus epidermidis (ATCC 12228); assay type: cell-based; settings: ATCC 12228, 18 h
Experimental: as §1

[5] = tested on: Pseudomonas aeruginosa (ATCC 27853); assay type: cell-based; settings: ATCC 27853, 18 h
Experimental: as §1

[6] = tested on: Staphylococcus aureus (ATCC 25923); assay type: cell-based; settings: ATCC 25923, 18 h
Experimental: as §1

In the case of IKHWKKVWKHAKKVL [IL15.3], the “interaction with DNA (gel retardation)” value [1] is reported as “binds to λ DNA fragments”, the “time to inhibit the growth kinetic rate” value ([2]; 1 × 10^6 CFU/mL) is reported as no more than 180 min and the “time to completely stop growth” value [2] is reported as 360 min. For the same sequence, the MIC [3] was 10 µg/mL, the MIC [4] was 9 µg/mL and the MIC [5] was 10 µg/mL. It also gave an MIC [6] of 12 µg/mL.
